Test results as given in patent US9447028B2, “Therapeutic aryl-amido-aryl compounds and their use” (King's College London, priority 2009, dated 2016).

How the values were obtained:
Format in all cases: cell-based
RARγ = target: T1, RARγ (Homo sapiens, UniProt P13631); test: Transactivation assay for RAR gamma (gal4-RAR fusion, luciferase reporter, COS-7 cells); settings: ratio of test compound EC50 to that of atRA; inactive = no agonist action at the highest concentration tested
T1 construct: gal4 (fusion partner); expressed in transfected cells; host or cells: COS-7
T1 sequence (P13631 185-419 limits assumed): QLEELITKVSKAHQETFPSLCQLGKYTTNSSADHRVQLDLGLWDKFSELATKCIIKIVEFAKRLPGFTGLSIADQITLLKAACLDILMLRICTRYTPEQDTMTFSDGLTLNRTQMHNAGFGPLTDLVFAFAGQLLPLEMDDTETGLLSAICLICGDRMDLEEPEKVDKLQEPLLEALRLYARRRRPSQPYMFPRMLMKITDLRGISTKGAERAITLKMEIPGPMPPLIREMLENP
In short: (§1)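 COS-7 cells co-transfected with gal4–RAR ligand-binding-domain fusion and pFR-luc reporter, then treated with compound in phenol-red-free DMEM (1% DMSO) for about one day. Luciferase read after lysis with BrightGlo; EC50 values from replicate experiments given as a ratio of means.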

RARα = target: T2, RARα (Homo sapiens, UniProt P10276); test: Transactivation assay for RAR alpha (gal4-RAR fusion, luciferase reporter, COS-7 cells); settings: for RARα/RARβ ratio (*): fold-selectivity for RARα over RARβ; for RARα activity ratio: ratio of test compound EC50 to that of atRA on the same plate
T2 construct: gal4 (fusion partner); expressed in transfected cells; host or cells: COS-7
T2 sequence (P10276 183-417 limits assumed): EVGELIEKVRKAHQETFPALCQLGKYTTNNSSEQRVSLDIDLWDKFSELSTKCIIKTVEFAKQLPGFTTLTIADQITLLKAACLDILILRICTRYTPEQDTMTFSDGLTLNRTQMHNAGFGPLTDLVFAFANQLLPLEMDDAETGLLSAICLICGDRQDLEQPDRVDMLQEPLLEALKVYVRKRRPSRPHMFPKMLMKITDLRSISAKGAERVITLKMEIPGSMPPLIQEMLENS
In short: as §1

RARβ = target: T3, RARβ (Homo sapiens, UniProt P10826); test: Transactivation assay for RAR beta (gal4-RAR fusion, luciferase reporter, COS-7 cells); settings: ratio of test compound EC50 to that of atRA; inactive = no agonist action at the highest concentration tested
T3 construct: gal4 (fusion partner); expressed in transfected cells; host or cells: COS-7
T3 sequence (P10826 183-417 limits assumed): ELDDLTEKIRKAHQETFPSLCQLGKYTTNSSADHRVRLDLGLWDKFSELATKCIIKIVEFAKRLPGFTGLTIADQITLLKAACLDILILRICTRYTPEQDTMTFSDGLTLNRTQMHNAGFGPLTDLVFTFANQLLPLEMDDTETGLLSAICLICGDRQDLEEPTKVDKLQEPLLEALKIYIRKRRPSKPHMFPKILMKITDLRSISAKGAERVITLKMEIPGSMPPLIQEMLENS
In short: as §1

Row | RARγ activity ratio (RARγ) | RARα/RARβ ratio (*) (RARα) | RARα activity ratio (RARα) | RARβ activity ratio (RARβ) | Structure (SMILES)
1 | 375 | 23 | 1.7 | 39 | CCC(CC)Oc1cc(C(=O)Nc2ccc(C(=O)O)cc2)cc(Cl)c1OC [AAA-101, 4-(3-Chloro-4-methoxy-5-(pentan-3-yloxy)benzamido)benzoic acid]
2 | 2833 | 135 | 4.8 | 647 | CC(C)Oc1cc(C(=O)Nc2ccc(C(=O)O)cc2)cc(OC(C)C)c1Br [AAA-107, 4-(4-Bromo-3,5-diisopropoxybenzamido)benzoic acid]
3 | 792000 | 396 | 4 | 1583 | CC(C)Oc1cc(C(=O)Nc2ccc(C(=O)O)c(O)c2)cc(OC(C)C)c1Br [AAA-109, 4-(4-Bromo-3,5-diisopropoxybenzamido)-2-hydroxybenzoic acid]
4 | >12000 | 120 | 16 | 1921 | CCOc1cc(C(=O)Nc2ccc(C(=O)O)c(C)c2)cc(OCC)c1Br [AAA-110, 4-(4-Bromo-3,5-diethoxybenzamido)-2-methylbenzoic acid]
5 | 50000 | 71 | 10 | 712 | Cc1cc(NC(=O)c2cc(OC(C)C)c(Br)c(OC(C)C)c2)ccc1C(=O)O [AAA-111, 4-(4-Bromo-3,5-diisopropoxybenzamido)-2-methylbenzoic acid]
6 | 1268 | 1212 | 2 | 2464 | CC(C)Oc1cc(C(=O)Nc2ccc(C(=O)O)cc2)cc(OC(C)C)c1Cl [AAA-112, 4-(4-Chloro-3,5-diisopropoxybenzamido)benzoic acid]
7 | 11093 | 231 | 3.9 | 900 | Cc1cc(NC(=O)c2cc(Cl)c(Cl)c(OC(C)C)c2)ccc1C(=O)O [AAA-113, 4-(3,4-Dichloro-5-isopropoxybenzamido)-2-methylbenzoic acid]
8 | 25172 | 58 | 2.6 | 150 | CCOc1cc(C(=O)Nc2ccc(C(=O)O)c(C)c2)cc(OC(CC)CC)c1Cl [AAA-115, 4-(4-Chloro-3-ethoxy-5-(pentan-3-yloxy)benzamido)-2-methylbenzoic acid]
9 | 29730 | 68 | 4 | 273 | Cc1cc(NC(=O)c2cc(OC(C)C)c(Cl)c(OC(C)C)c2)ccc1C(=O)O [AAA-117, 4-(4-Chloro-3,5-diisopropoxybenzamido)-2-methylbenzoic acid]
10 | 933333 | 47 | 36 | 1700 | COc1cc(C(=O)Nc2ccc(C(=O)O)cc2)cc(OC(C)C)c1Cl [AAA-118, 4-(4-Chloro-3-isopropoxy-5-methoxybenzamido)benzoic acid]
11 | >42000 | 192 | 26 | 5000 | CC(C)Oc1cc(C(=O)Nc2ccc(C(=O)O)cc2)cc(OC(C)C)c1F [AAA-119, 4-(4-Fluoro-3,5-diisopropoxybenzamido)benzoic acid]
12 | 2162 | 157 | 0.89 | 142 | CC(C)Oc1cc(C(=O)Nc2ccc(C(=O)O)cc2)cc(C(F)(F)F)c1OC(C)C [AAA-120, 4-(3,4-Diisopropoxy-5-(trifluoromethyl)benzamido)benzoic acid]
13 | inactive | 7.1 | 90 | 642 | O=C(O)c1ccc(NC(=O)c2cc(Cl)cc(Cl)c2)cc1 [XXX-03, 4-(3,5-Dichlorobenzamido)benzoic acid, reference compound]

The next lines start with the compound.

Row | Structure (SMILES) | RARγ activity ratio (RARγ) | RARα/RARβ ratio (*) (RARα) | RARα activity ratio (RARα) | RARβ activity ratio (RARβ)
14 | COc1c(Cl)cc(C(=O)Nc2ccc(C(=O)O)cc2)cc1OC1CCC1 [AAA-098, 4-(3-Chloro-5-cyclobutoxy-4-methoxybenzamido)benzoic acid] | 2955 | 36 | 12 | 433
15 | COc1c(Cl)cc(C(=O)Nc2ccc(C(=O)O)c(C)c2)cc1OC1CCC1 [AAA-099, 4-(3-Chloro-5-cyclobutoxy-4-methoxybenzamido)-2-methylbenzoic acid] | 89 | 59 | 11 | 655
16 | COc1c(Cl)cc(C(=O)Nc2ccc(C(=O)O)c(F)c2)cc1OC1CCC1 [AAA-100, 4-(3-Chloro-5-cyclobutoxy-4-methoxybenzamido)-2-fluorobenzoic acid] | 11818 | 99 | 33 | 3273
17 | CCC(CC)Oc1cc(C(=O)Nc2ccc(C(=O)O)c(C)c2)cc(Cl)c1OC [AAA-102, 4-(3-Chloro-4-methoxy-5-(pentan-3-yloxy)benzamido)-2-methylbenzoic acid] | 833 | 33 | 2.2 | 73
18 | CCC(CC)Oc1cc(C(=O)Nc2ccc(C(=O)O)c(F)c2)cc(Cl)c1OC [AAA-103, 4-(3-Chloro-4-methoxy-5-(pentan-3-yloxy)benzamido)-2-fluorobenzoic acid] | 583 | 21 | 2.6 | 57
19 | COCCOc1cc(C(=O)Nc2ccc(C(=O)O)c(F)c2)cc(Cl)c1OC [AAA-104, 4-(3-Chloro-4-methoxy-5-(2-methoxyethoxy)benzamido)-2-fluorobenzoic acid] | 5000 | 535 | 19 | 10164
20 | COc1c(Cl)cc(C(=O)Nc2ccc(C(=O)O)cc2)cc1OCC(C)(C)C [AAA-105, 4-(3-Chloro-4-methoxy-5-(neopentyloxy)benzamido)benzoic acid] | 941 | 13 | 0.66 | 8.4
21 | CCOc1cc(C(=O)Nc2ccc(C(=O)O)cc2)cc(OCC)c1Br [AAA-106, 4-(4-Bromo-3,5-diethoxybenzamido)benzoic acid] | 2326 | 34 | 66 | 2245
22 | CC(C)Oc1cc(C(=O)Nc2ccc(C(=O)O)c(F)c2)cc(OC(C)C)c1Br [AAA-108, 4-(4-Bromo-3,5-diisopropoxybenzamido)-2-fluorobenzoic acid] | 32500 | 338 | 5.1 | 1727
23 | CCOc1cc(C(=O)Nc2ccc(C(=O)O)cc2)cc(OC(CC)CC)c1Cl [AAA-114, 4-(4-Chloro-3-ethoxy-5-(pentan-3-yloxy)benzamido)benzoic acid] | 22759 | 23 | 4.4 | 100
24 | CCOc1cc(C(=O)Nc2ccc(C(=O)O)c(F)c2)cc(OC(CC)CC)c1Cl [AAA-116, 4-(4-Chloro-3-ethoxy-5-(pentan-3-yloxy)benzamido)-2-fluorobenzoic acid] | 55172 | 46 | 4.5 | 208
25 | CCOc1ccc(C(=O)Nc2ccc(C(=O)O)cc2)cc1C(F)(F)F [XXX-01, 4-(4-Ethoxy-3-(trifluoromethyl)benzamido)benzoic acid, reference compound] | inactive | 7.9 | 327 | 2570
